Here are results for 8 molecules from US20050267092A1, “Novel cephalosporin compounds and process for preparing the same” (priority 2002, published 2005).

Experiment in all cases: Minimum Inhibitory Concentration (MIC), agar dilution, standard strains
Common to all, as to format: cell-based

Assay [1] relates to E. faecalis 2168. As to conditions: for MIC: read-out: Minimum Inhibitory Concentration (MIC), E. faecalis 2168. On the procedure:
(§1) Minimum Inhibitory Concentration (MIC)
(§2) The effectiveness of the compound according to the present invention was determined by obtaining Minumum Inhibitory Concentration (MIC) of the compounds prepared by the above examples (Compounds I-1˜I-6, I-10) and Vancomycin, which is the known compound having a potent activity against gram-positive strains, as the control drug against the standard strains. Specifically, Minimum Inhibitory Concentration was obtained by diluting the test compounds according to a double dilution method, dispersing them in Mueller-Hinton agar medium, inoculating each of the test strains having 10^7 cfu (colony forming unit) per ml in an amount of 2 μl to the medium and then incubating them at 37° C. for 20 hours. From the results of Minimum Inhibitory Concentration test, it can be seen that the compound according to the present invention has a good activity against major pathogenic microorganisms, which cause hospital infection, including MRSA strains.

Assay [2] concerns S. aureus K311. As to conditions: for MIC: Staphylococcus aureus, read-out: Minimum Inhibitory Concentration (MIC), S. aureus K311. On the procedure: as §1, §2
The test system of assay [3] is S. aureus giorgio. To be noted: for MIC: Staphylococcus aureus, read-out: Minimum Inhibitory Concentration (MIC), S. aureus giorgio. The protocol: as §1, §2
Assay [4] deals with S. epidermidis Q033. To be noted: for MIC: Staphylococcus epidermidis, read-out: Minimum Inhibitory Concentration (MIC), S. epidermidis Q033. The protocol: as §1, §2
In assay [5] the test system is S. aureus 77. As to conditions: for MIC: read-out: Minimum Inhibitory Concentration (MIC), S. aureus 77. On the procedure:
as §1, §2

Where [6] appears, read: Enterococcus faecalis, 2168, Mueller-Hinton agar, double dilution, 37° C. for 20 hours.
Setting [7] is: K311, Mueller-Hinton agar, double dilution, 37° C. for 20 hours.
[8] abbreviates: Mueller-Hinton agar, double dilution, 37° C. for 20 hours.
[9] abbreviates: Q033, Mueller-Hinton agar, double dilution, 37° C. for 20 hours.
Setting [10] is: Staphylococcus aureus, 77, Mueller-Hinton agar, double dilution, 37° C. for 20 hours.

Converted amounts (≈) assume the structure as drawn. Read-outs that look alike come from different tables or passages of the source. Bounds are passed on as bounds.

`Nc1cc(S/C=C/C2=C(C(=O)O)N3C(=O)[C@@H](NC(=O)C(=NO)c4nc(N)sc4Cl)[C@H]3SC2)nc(O)n1` [Compound I-1, (6R,7R)-7-{[2-(2-amino-5-chloro-1,3-thiazol-4-yl)-2-(hydroxyimino)acetyl]amino}-3-{(E)-2-[(6-amino-2-hydroxy-4-pyrimidinyl)sulfanyl]ethenyl}-8-oxo-5-thia-1-azabicyclo[4.2.0]oct-2-ene-2-carboxylic acid]: the MIC in assay [1] (setting [6]) worked out at 0.5 µg/mL (≈ 0.876 µM); in assay [2] (setting [7]) it was 0.5 µg/mL (≈ 0.876 µM); in assay [3] (setting [8]), 0.13 µg/mL (≈ 0.228 µM); in assay [4] (setting [9]) it was 0.063 µg/mL (≈ 0.11 µM); in assay [5] (setting [10]) it was 0.25 µg/mL (≈ 0.438 µM).
Turning to `Nc1cc(S/C=C/C2=C(C(=O)O)N3C(=O)[C@@H](NC(=O)C(=NO)c4nc(N)sc4Cl)[C@H]3SC2)nc(N)n1` [Compound I-2, (6R,7R)-7-{[2-(2-amino-5-chloro-1,3-thiazol-4-yl)-2-(hydroxyimino)acetyl]amino}-3-{(E)-2-[(2,6-diamino-4-pyrimidinyl)sulfanyl]ethenyl}-8-oxo-5-thia-1-azabicyclo[4.2.0]oct-2-ene-2-carboxylic acid], the MIC was found to be 1 µg/mL (≈ 1.75 µM) in assay [1] (setting [6]); 1 µg/mL (≈ 1.75 µM) in assay [2] (setting [7]); 0.13 µg/mL (≈ 0.228 µM) in assay [3] (setting [8]); 0.063 µg/mL (≈ 0.111 µM) in assay [4] (setting [9]); 1 µg/mL (≈ 1.75 µM) in assay [5] (setting [10]).
`Nc1nc(O)cc(S/C=C/C2=C(C(=O)O)N3C(=O)[C@@H](NC(=O)C(=NO)c4nc(N)sc4Cl)[C@H]3SC2)n1` [Compound I-3, (6R,7R)-7-{[2-(2-amino-5-chloro-1,3-thiazol-4-yl)-2-(hydroxyimino)acetyl]amino}-3-{(E)-2-[(2-amino-6-hydroxy-4-pyrimidinyl)sulfanyl]ethenyl}-8-oxo-5-thia-1-azabicyclo[4.2.0]oct-2-ene-2-carboxylic acid]: the MIC worked out at 0.5 µg/mL (≈ 0.876 µM) in assay [1] (setting [6]); 0.5 µg/mL (≈ 0.876 µM) in assay [2] (setting [7]); 0.13 µg/mL (≈ 0.228 µM) in assay [3] (setting [8]); 0.063 µg/mL (≈ 0.11 µM) in assay [4] (setting [9]); 0.5 µg/mL (≈ 0.876 µM) in assay [5] (setting [10]).
As to `NCCSc1nccc(S/C=C/C2=C(C(=O)O)N3C(=O)[C@@H](NC(=O)C(=NO)c4nc(N)sc4Cl)[C@H]3SC2)n1` [Compound I-4, (6R,7R)-7-{[2-(2-amino-5-chloro-1,3-thiazol-4-yl)-2-(hydroxyimino)acetyl]amino}-3-{(E)-2-({2-[(2-aminoethyl)sulfanyl]-4-pyrimidinyl}sulfanyl)ethenyl}-8-oxo-5-thia-1-azabicyclo[4.2.0]oct-2-ene-2-carboxylic acid], the MIC in assay [1] (setting [6]) came out at 1 µg/mL (≈ 1.63 µM); in assay [2] (setting [7]), 2 µg/mL (≈ 3.25 µM); in assay [3] (setting [8]), 0.25 µg/mL (≈ 0.406 µM); in assay [4] (setting [9]) it was 0.13 µg/mL (≈ 0.211 µM); in assay [5] (setting [10]) it was 1 µg/mL (≈ 1.63 µM).
Consider `Cc1cc(S/C=C/C2=C(C(=O)O)N3C(=O)[C@@H](NC(=O)C(=NO)c4nc(N)sc4Cl)[C@H]3SC2)nc(SCCN)n1` [Compound I-5], for which, in assay [1] (setting [8]), the “Minimum Inhibitory Concentration (MIC), E. faecalis 2168” value is 0.25 µg/mL. Moreover, the “Minimum Inhibitory Concentration (MIC), S. aureus K311” value in assay [2] (setting [8]) was found to be 2 µg/mL. Further, the “Minimum Inhibitory Concentration (MIC), S. aureus giorgio” value in assay [3] (setting [8]) was 0.25 µg/mL. For the same molecule, the “Minimum Inhibitory Concentration (MIC), S. epidermidis Q033” value in assay [4] (setting [8]) stood at 0.13 µg/mL. Moreover, the “Minimum Inhibitory Concentration (MIC), S. aureus 77” value in assay [5] (setting [8]) came to 1 µg/mL.
As to `Nc1nc(C(=NO)C(=O)N[C@@H]2C(=O)N3C(C(=O)O)=C(/C=C/Sc4nc(N)c5cn[nH]c5n4)CS[C@H]23)c(Cl)s1` [Compound I-6, (6R,7R)-7-{[2-(2-amino-5-chloro-1,3-thiazol-4-yl)-2-(hydroxyimino)acetyl]amino}-3-{(E)-2-[(4-amino-1H-pyrazolo[3,4-d]pyrimidin-6-yl)sulfanyl]ethenyl}-8-oxo-5-thia-1-azabicyclo[4.2.0]oct-2-ene-2-carboxylic acid], the MIC in assay [1] (setting [6]) was determined as 0.5 µg/mL (≈ 0.84 µM); in assay [2] (setting [7]) it was 0.5 µg/mL (≈ 0.84 µM); in assay [3] (setting [8]), 0.13 µg/mL (≈ 0.218 µM); in assay [4] (setting [9]), 0.031 µg/mL (≈ 0.0521 µM); in assay [5] (setting [10]) it was 0.5 µg/mL (≈ 0.84 µM).
For `Nc1cc(S/C=C/C2=C(C(=O)O)N3C(=O)[C@@H](NC(=O)C(=NOC4CCCC4)c4nc(N)sc4Cl)[C@H]3SC2)nc(N)n1` [Compound I-10, (6R,7R)-7-({2-(2-amino-5-chloro-1,3-thiazol-4-yl)-2-[(cyclopentyloxy)imino]acetyl}amino)-3-{(E)-2-[(2,6-diamino-4-pyrimidinyl)sulfanyl]ethenyl}-8-oxo-5-thia-1-azabicyclo[4.2.0]oct-2-ene-2-carboxylic acid], the MIC in assay [1] (setting [6]) is 4 µg/mL (≈ 6.27 µM); in assay [2] (setting [7]), 2 µg/mL (≈ 3.13 µM); in assay [3] (setting [8]), 0.5 µg/mL (≈ 0.784 µM); in assay [4] (setting [9]), 0.063 µg/mL (≈ 0.0987 µM); in assay [5] (setting [10]), 2 µg/mL (≈ 3.13 µM).
`CN[C@H](CC(C)C)C(=O)N[C@H]1C(=O)N[C@@H](CC(N)=O)C(=O)N[C@H]2C(=O)N[C@H]3C(=O)N[C@H](C(=O)N[C@H](C(=O)O)c4cc(O)cc(O)c4-c4cc3ccc4O)[C@H](O)c3ccc(c(Cl)c3)Oc3cc2cc(c3O[C@@H]2O[C@H](CO)[C@@H](O)[C@H](O)[C@H]2O[C@H]2C[C@](C)(N)[C@H](O)[C@H](C)O2)Oc2ccc(cc2Cl)[C@H]1O` [Vancomycin, reference compound]: the MIC is over 64 µg/mL in assay [1] (Enterococcus faecalis, 2168, 20 h); 2 µg/mL (≈ 1.38 µM) in assay [2] (K311, 20 h); 1 µg/mL (≈ 0.69 µM) in assay [3] (20 h); 1 µg/mL (≈ 0.69 µM) in assay [4] (Q033, 20 h); 1 µg/mL (≈ 0.69 µM) in assay [5] (Staphylococcus aureus, 77, 20 h).
